The target of data set [1] is T1, Cox-1 (Ovis aries, UniProt P05979).
T1 construct: purchased Cayman, USA
T1 sequence (P05979 25-600): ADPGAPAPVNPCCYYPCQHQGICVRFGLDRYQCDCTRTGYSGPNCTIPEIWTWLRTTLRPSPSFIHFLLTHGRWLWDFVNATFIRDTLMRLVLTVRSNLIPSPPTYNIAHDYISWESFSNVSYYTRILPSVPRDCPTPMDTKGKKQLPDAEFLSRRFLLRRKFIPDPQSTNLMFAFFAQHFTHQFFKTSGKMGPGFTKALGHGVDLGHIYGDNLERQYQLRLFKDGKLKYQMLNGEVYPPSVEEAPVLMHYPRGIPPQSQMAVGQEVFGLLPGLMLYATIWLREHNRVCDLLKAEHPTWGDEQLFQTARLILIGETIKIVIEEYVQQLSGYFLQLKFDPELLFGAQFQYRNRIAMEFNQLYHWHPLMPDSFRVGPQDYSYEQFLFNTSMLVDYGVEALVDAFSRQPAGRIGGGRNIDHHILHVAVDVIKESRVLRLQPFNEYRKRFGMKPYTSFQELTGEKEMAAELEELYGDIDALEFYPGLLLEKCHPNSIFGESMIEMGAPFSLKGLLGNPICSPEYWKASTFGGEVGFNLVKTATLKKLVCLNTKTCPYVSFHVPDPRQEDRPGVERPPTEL
Description: inhibiting activity to COX-1 (TMPD colorimetric, 590 nm). The class given is biochemical. To be noted: tested at 300, 100, 30, 10 μmol/L (positive control 100, 30, 10, 3). The protocol:
(§1) 2.5.1 The Inhibiting Activity to COX-1/COX-2
(§2) (1) In 220 ul of reaction system, mixed buffer (1×), heme, COX-1/COX-2, and the compound to be tested, are sequentially added, and are incubated for 5 minutes at 25° C.;
(§3) (2) Adding chromogenic substrate (TMPD) and arachidonic acid;
(§4) (3) Carefully shaking the plate for several seconds, then incubating for 15 minutes at 25° C.;
(§5) (4) Detecting absorption value at 590 nm.
(§6) Fitting data of concentration (μmol/L) and corresponding inhibition rate (%) via Microsoft EXCEL software to get a trendline, so as to obtain the half-effective inhibiting concentration (IC50) of each tested enzyme.

Data set [2] relates to ICR mice. Description: in vivo. The source says: (§7) Each tested group includes 5 dose-groups during the tests as follows:
Intragastric administration (ig)
(3) Observed periods: 14 days

For data set [3], the target named is T2, Cox-2 (Homo sapiens, UniProt P35354).
T2 construct: purchased Cayman, USA
T2 sequence (P35354 18-604): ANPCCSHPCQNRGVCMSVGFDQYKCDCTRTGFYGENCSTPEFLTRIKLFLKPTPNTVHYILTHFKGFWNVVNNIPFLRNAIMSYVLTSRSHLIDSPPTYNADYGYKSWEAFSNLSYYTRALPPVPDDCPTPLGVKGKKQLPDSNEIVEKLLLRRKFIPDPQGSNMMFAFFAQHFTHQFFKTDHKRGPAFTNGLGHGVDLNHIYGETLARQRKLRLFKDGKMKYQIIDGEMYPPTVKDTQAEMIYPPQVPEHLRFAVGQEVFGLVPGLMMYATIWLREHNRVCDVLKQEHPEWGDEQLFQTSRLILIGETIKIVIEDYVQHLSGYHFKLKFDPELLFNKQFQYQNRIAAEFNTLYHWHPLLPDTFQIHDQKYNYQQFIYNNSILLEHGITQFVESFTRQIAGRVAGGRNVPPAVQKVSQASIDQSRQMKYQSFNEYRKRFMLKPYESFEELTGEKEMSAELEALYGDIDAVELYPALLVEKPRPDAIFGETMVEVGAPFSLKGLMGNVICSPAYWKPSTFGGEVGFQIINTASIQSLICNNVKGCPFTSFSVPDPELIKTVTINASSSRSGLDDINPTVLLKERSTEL
The experiment in a line: inhibiting activity to COX-2 (TMPD colorimetric, 590 nm). It counts as biochemical. Conditions: tested at 300, 100, 30, 10 μmol/L (positive control 100, 30, 10, 3). As for the experimental part:
as §1, §2, §3, §4, §5, §6

For data set [4], the target named is T3, 5-Lox (human recombinant) (Homo sapiens, UniProt P09917).
T3 construct: purchased Cayman, USA
T3 sequence (P09917 1-674): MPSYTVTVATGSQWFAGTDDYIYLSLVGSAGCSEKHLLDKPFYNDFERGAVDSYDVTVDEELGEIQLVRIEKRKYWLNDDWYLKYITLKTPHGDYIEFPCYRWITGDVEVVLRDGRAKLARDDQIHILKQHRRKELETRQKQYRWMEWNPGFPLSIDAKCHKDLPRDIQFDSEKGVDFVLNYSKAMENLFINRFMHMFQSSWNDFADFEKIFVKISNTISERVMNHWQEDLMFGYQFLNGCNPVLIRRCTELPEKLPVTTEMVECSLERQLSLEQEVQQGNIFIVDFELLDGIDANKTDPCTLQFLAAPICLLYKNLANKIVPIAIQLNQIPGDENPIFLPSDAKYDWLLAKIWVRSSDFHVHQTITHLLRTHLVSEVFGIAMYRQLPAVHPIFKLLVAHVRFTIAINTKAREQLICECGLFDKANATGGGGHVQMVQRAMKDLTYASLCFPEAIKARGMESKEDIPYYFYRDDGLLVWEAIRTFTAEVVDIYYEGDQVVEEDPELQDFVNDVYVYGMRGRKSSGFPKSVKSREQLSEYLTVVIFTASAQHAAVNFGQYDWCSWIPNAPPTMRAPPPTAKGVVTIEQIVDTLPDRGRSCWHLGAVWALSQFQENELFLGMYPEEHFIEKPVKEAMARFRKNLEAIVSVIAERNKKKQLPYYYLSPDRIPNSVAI
Description: inhibiting activity to 5-lipoxygenase (500 nm). The class given is biochemical. To be noted: tested at 300, 100, 30, 10 μmol/L (positive control 100, 30, 10, 3).
From the text: as §6

The test system of data set [5] is ICR mice. Description: in vivo.
From the text: as §7
Intraperitoneal injection (ip)
(3) Observed periods: 14 days.
This is another data set of the same source.

Data set [6] concerns SD rats. The experiment in a line: long-term toxicity test in SD rats, thirteen-week consecutive intragastric administration and four-week convalescence. Conditions: rats. The protocol:
2. […] The tested samples are formulated into suspensions by milling with 0.5% CMC—Na; intragastric administration (10 ml/kg) every day for consecutive 13 weeks; on each day, after administration, the general conditions of the animals are observed, and weight and amount of ingestion are determined once every week. In 24 hours after the last administration, half of rats in each tested group are fasted overnight, blood samples are withdrawn via femoral arteries, and the rats are dissected, and the indexes of blood cytology and biochemics, gloss anatomy and histopathological examination are preformed. The administration to remaining half rats is stopped, and the convalescence is observed; general conditions are observed and weight and amount of ingestion are determined once every week. After 4 weeks, the observation is complete, and the half of rats in each tested group are fasted overnight, blood samples are withdrawn via femoral arteries, and the rats are dissected, and the indexes of blood cytology and biochemics, gloss anatomy and histopathological examination are preformed.

The test system of data set [7] is SD rats. The experiment in a line: toxicity test in SD rats, four-week consecutive intragastric administration. To be noted: rats. The protocol:
2. […] The tested samples are formulated into suspensions by milling with 0.5% CMC—Na; intragastric administration every day (10 ml/kg) for consecutive 4 weeks; on each day, after administration, the general conditions of the animals are observed, and weight and amount of ingestion are determined once every week. In 24 hours after the last administration, the rats are fasted overnight, blood samples are withdrawn via femoral arteries, and the rats are dissected, and the indexes of blood cytology and biochemics, gloss anatomy and histopathological examination are preformed.

Where “and” joins values, the source holds several entries; their conditions need not be identical. Identical values can stand only once.

As for “R-10,11-dihydro-alpha-methyl-10-oxo-dibenzo[b,f]tiazem-2-acetic acid:S-10,11-dihydro-alpha-methyl-10-oxo-dibenzo[b,f]tiazem-2-acetic acid (6:1) [S:R = 1:6]”, the IC50 (commonly the midpoint of a concentration-inhibition curve) in data set [1] amounted to 70.3 µM; in data set [3], 5.2 µM; in data set [4] it was 18.6 µM. In addition, the results for the “Com. Vs. S (multiple)” value in data set [2] (LD50 ig compared with S) and in data set [5] (LD50 ip compared with S) were 4.2 multiple and 2.5 multiple, respectively. Besides, the LD50 (as a rule, the dose at which mortality reaches 50%) was 1138.5 ± 80.3 mg/kg and 1138.5 mg/kg in data set [2] (mice, ig, single dose, 14 days observation, Bliss method); 497.6 ± 28.6 mg/kg in data set [5] (mice, ip, single dose, 14 days observation, Bliss method). Also, the gastrointestinal tract toxicity result was “not produce significant gastrointestinal tract toxicity” in data set [6] (13-week ig, S 50, 25, RS 50, R 400, 200, 100, R:S=6:1 200, 100, 50 mg/kg) and “do not produce significant gastrointestinal tract toxicity” in data set [7] (four-week ig, S 80, 40, RS 80, R 480, 240, 120, R:S=6:1 320, 160, 80 mg/kg). Moreover, the nontoxic dosage is reported as 100 mg/kg in data set [6] (13-week consecutive intragastric administration) and 160 mg/kg in data set [7] (four-week consecutive intragastric administration).

(Values after patent US20110224276A1, “OPTICAL ISOMER OF PHENYLPROPIONIC ACID AND ITS MEDICINAL USE” (priority 2008, published 2011).)
